The supplement of paper PMC10307832

How the values were obtained:
Test in all cases: relative viability (nuclei count vs DMSO), 5 days (fraction); higher = more cells survive
Metformin + Crizotinib = compound: CN(C)C(=N)NC(=N)N [Metformin] + C[C@@H](Oc1cc(-c2cnn(C3CCNCC3)c2)cnc1N)c1c(Cl)ccc(F)c1Cl [Crizotinib] (partner 1 µM)
How it was run: (§1)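 The day after seeding in 1536-well plates, lung cancer cell lines were treated by pin tool with a single drug, or with a fixed anchor-drug dose together with five library-drug doses (not always all listed) in √10 steps. After 5 days, a combined fix-and-stain solution (final 0.05% Triton X-100, 1% formaldehyde, 1 ug/ml Hoechst) was added. Nuclei counted on 4× images gave relative viability as treated counts over vehicle counts, reported as the median of duplicate plates.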

Metformin + Decitabine = compound: CN(C)C(=N)NC(=N)N [Metformin] + Nc1ncn([C@H]2C[C@H](O)[C@@H](CO)O2)c(=O)n1 [Decitabine] (partner 2 µM)
How it was run: as §1

Apatinib + Tozasertib = compound: N#CC1(c2ccc(NC(=O)c3cccnc3NCc3ccncc3)cc2)CCCC1 [Apatinib] + Cc1cc(Nc2cc(N3CCN(C)CC3)nc(Sc3ccc(NC(=O)C4CC4)cc3)n2)n[nH]1 [Tozasertib] (partner 0.1 µM)
How it was run: as §1

Apatinib + Vorinostat = compound: N#CC1(c2ccc(NC(=O)c3cccnc3NCc3ccncc3)cc2)CCCC1 [Apatinib] + O=C(CCCCCCC(=O)Nc1ccccc1)NO [Vorinostat] (partner 1 µM)
How it was run: as §1

Row | Cell Line | relative viability (Metformin + Crizotinib; first compound 10 µM) | relative viability (Metformin + Crizotinib; first compound 31.62 µM) | relative viability (Metformin + Crizotinib; first compound 100 µM) | relative viability (Metformin + Crizotinib; first compound 316.23 µM) | relative viability (Metformin + Crizotinib; first compound 1000 µM) | relative viability (Metformin + Decitabine; first compound 10 µM) | relative viability (Metformin + Decitabine; first compound 31.62 µM) | relative viability (Metformin + Decitabine; first compound 100 µM) | relative viability (Metformin + Decitabine; first compound 316.23 µM) | relative viability (Metformin + Decitabine; first compound 1000 µM) | relative viability (Apatinib + Tozasertib; first compound 0.08 µM) | relative viability (Apatinib + Tozasertib; first compound 0.253 µM) | relative viability (Apatinib + Tozasertib; first compound 0.8 µM) | relative viability (Apatinib + Tozasertib; first compound 2.53 µM) | relative viability (Apatinib + Tozasertib; first compound 8 µM) | relative viability (Apatinib + Vorinostat; first compound 0.08 µM) | relative viability (Apatinib + Vorinostat; first compound 0.253 µM) | relative viability (Apatinib + Vorinostat; first compound 0.8 µM) | relative viability (Apatinib + Vorinostat; first compound 2.53 µM) | relative viability (Apatinib + Vorinostat; first compound 8 µM)
1 | NCI-H2087 | 0.813 | 0.726 | 0.682 | 0.849 | 0.638 | 0.251 | 0.231 | 0.294 | 0.294 | 0.3 | 0.241 | 0.223 | 0.215 | 0.179 | 0.143 | 0.768 | 0.591 | 0.747 | 0.579 | 0.688
2 | PC-3 [JPC-3] | 0.861 | 0.893 | 0.951 | 0.876 | 0.901 | 0.786 | 0.848 |  | 0.841 | 0.732 | 0.904 | 0.871 | 0.78 | 0.814 | 0.681 |  | 0.756 | 0.733 | 0.533 | 0.799
3 | NCI-H661 |  | 0.848 | 0.843 | 0.885 | 0.8 | 0.562 | 0.61 | 0.587 | 0.579 | 0.602 | 0.333 | 0.325 | 0.357 | 0.388 | 0.392 | 0.814 | 0.75 | 0.739 | 0.722 | 0.716
4 | NCI-H441 | 0.337 |  | 0.638 | 0.457 | 0.655 |  | 0.236 | 0.262 | 0.217 | 0.262 | 0.672 | 0.569 | 0.538 | 0.533 | 0.428 | 0.891 | 0.673 | 0.827 | 0.809 | 0.574
5 | LCLC-97TM1 | 0.401 | 0.4 | 0.457 | 0.382 | 0.543 |  | 0.203 | 0.202 | 0.21 | 0.29 | 0.226 | 0.255 | 0.173 | 0.2 | 0.165 | 0.911 | 0.758 | 0.695 | 0.577 | 0.337
6 | RERF-LC-KJ | 0.802 | 0.739 | 0.718 | 0.424 | 0.74 | 0.687 | 0.703 | 0.505 | 0.556 | 0.514 | 0.538 | 0.428 | 0.393 | 0.326 | 0.293 | 0.625 | 0.72 | 0.63 | 0.695 | 0.577
7 | NCI-H2170 | 1.09 | 1.14 | 1.19 | 1.02 | 1.19 | 0.415 | 0.436 | 0.417 | 0.395 | 0.471 | 0.86 | 0.879 | 0.677 | 0.652 | 0.51 | 0.881 | 0.751 | 0.792 | 0.718 | 0.775
8 | NCI-H2405 | 0.815 | 0.93 | 0.97 | 0.89 | 0.854 |  | 0.783 | 0.756 | 0.677 | 0.64 | 0.911 | 0.759 | 0.685 | 0.607 | 0.604 | 1.21 | 1.15 | 1.06 | 0.951 | 1.03
9 | UMC-11 | 0.725 | 0.742 | 0.673 | 0.626 | 0.598 | 0.573 | 0.743 | 0.741 | 0.49 | 0.437 | 0.193 | 0.194 | 0.198 | 0.211 | 0.198 | 0.403 | 0.397 | 0.366 | 0.349 | 0.341
10 | NCI-H727 | 0.886 | 0.886 | 1.04 | 0.811 | 0.993 | 0.789 | 0.897 | 0.89 |  | 1.1 | 0.676 | 0.631 | 0.545 | 0.559 | 0.488 | 1.18 |  | 1.23 | 1.08 | 0.999
11 | NCI-H650 | 0.709 | 0.669 | 0.908 | 0.709 | 0.862 | 0.274 | 0.313 | 0.314 | 0.301 | 0.312 | 0.769 | 0.777 | 0.724 | 0.644 | 0.486 | 0.494 | 0.422 | 0.391 | 0.264 | 0.42
12 | NCI-H838 | 0.815 | 0.814 | 0.875 | 0.864 | 0.854 | 0.478 | 0.465 | 0.482 | 0.396 | 0.459 | 0.301 | 0.302 | 0.248 | 0.222 | 0.213 | 0.778 | 0.784 | 0.702 | 0.652 | 0.722
13 | SK-LU-1 | 0.787 | 0.772 | 0.884 | 0.817 | 0.824 | 0.567 | 0.571 | 0.64 | 0.507 | 0.615 | 0.337 | 0.436 | 0.28 | 0.275 | 0.243 | 0.905 | 0.778 | 0.776 | 0.722 | 0.554
14 | SW 1573 | 0.892 | 0.849 | 0.866 | 0.706 | 0.815 | 0.508 | 0.637 | 0.44 | 0.431 | 0.421 | 0.165 | 0.196 | 0.193 | 0.185 | 0.183 | 0.993 | 1.07 | 0.702 | 0.47 | 0.446
15 | LK-2 | 0.228 | 0.214 | 0.234 | 0.176 | 0.245 | 0.298 | 0.398 | 0.33 | 0.294 | 0.444 | 0.159 | 0.195 | 0.183 | 0.152 | 0.175 | 0.267 | 0.269 | 0.248 | 0.145 | 0.228
16 | NCI-H1993 | 1.12 | 0.849 | 1.22 | 1.06 | 1.31 | 0.616 | 0.681 | 0.672 | 0.634 | 0.766 | 0.637 | 0.619 | 0.605 | 0.583 | 0.595 | 0.804 | 0.726 | 0.948 | 0.788 | 0.727
17 | NCI-H1437 | 0.931 | 0.918 | 0.935 | 0.898 | 0.902 | 0.641 | 0.595 | 0.59 | 0.593 | 0.577 | 0.453 | 0.461 | 0.393 | 0.333 | 0.281 | 0.854 | 0.928 | 0.71 | 0.554 | 0.534
18 | H3255 | 0.754 | 0.934 | 0.809 | 0.84 | 0.384 | 0.531 | 0.665 | 0.596 | 0.61 | 0.624 | 0.775 | 0.697 | 0.795 | 0.521 | 0.435 | 0.768 | 0.737 | 0.764 | 0.74 | 0.794
19 | NCI-H322M | 0.884 | 1.01 | 0.958 | 0.854 | 0.78 | 0.698 | 0.673 | 0.718 | 0.675 | 0.746 | 0.454 | 0.426 | 0.437 | 0.441 | 0.503 | 0.846 | 0.846 | 0.885 | 0.897 | 0.885
20 | LCLC-103H | 1.13 | 1.19 | 1.11 | 1.1 | 1.09 | 0.72 | 0.738 | 0.714 | 0.714 | 0.788 | 0.443 | 0.491 | 0.429 | 0.42 | 0.357 | 0.812 | 0.773 | 0.772 | 0.683 | 0.709
21 | PC-14 | 0.889 | 0.912 | 0.896 | 0.769 | 0.894 | 0.27 | 0.291 | 0.186 | 0.211 | 0.235 | 0.7 | 0.65 | 0.536 | 0.562 | 0.493 | 0.821 | 0.755 | 0.639 | 0.606 | 0.547
22 | NCI-H2009 | 1.06 | 1.07 | 1.11 | 1.04 | 0.878 | 0.367 | 0.366 | 0.351 | 0.401 | 0.424 | 0.856 | 0.792 | 0.687 | 0.58 | 0.38 | 0.701 | 0.776 | 0.669 | 0.627 | 0.48
23 | NCI-H2347 | 0.545 | 0.763 | 0.85 | 0.566 | 0.675 | 0.532 | 0.597 | 0.605 | 0.573 | 0.578 | 0.504 | 0.651 | 0.604 | 0.428 | 0.466 | 0.655 | 0.569 | 0.619 | 0.542 | 0.557
24 | NCI-H23 | 0.574 | 0.692 | 0.693 | 0.548 | 0.811 | 0.273 | 0.276 | 0.285 | 0.324 | 0.328 | 0.374 | 0.516 | 0.339 | 0.243 | 0.197 | 0.696 | 0.793 | 0.568 | 0.491 | 0.524
